Reference: PMC11638965, “Leveraging Dual-Ligase Recruitment to Enhance Protein Degradation via a Heterotrivalent Proteolysis Targeting Chimera” (Journal of the American Chemical Society, 2024)
Read-outs that look alike come from different tables or passages of the source.

Tests used:
BRD4 = BRD4 (Homo sapiens, UniProt O60885); experiment: Live cell kinetic HiBiT degradation assay, HiBiT-BRD4 HEK293 cells (parental, CRBN KO, VHL KO); type: cell-based; conditions: for EC50: HiBiT-BRD4 CRISPR knock-in HEK293 cells, live cell kinetic degradation, 24 h, read-out: Dmax 50 BRD4; for λmax BRD4 (degradation rate): HiBiT-BRD4 knock-in HEK293 cells; for fold increase in degradation of BRD4 (Dmax 50) vs matched pair: 23 vs 1, 26 vs 23, 30 vs 2
Description: HEK293 HiBiT-BRD2 (LgBiT stable), HEK293 HiBiT-BRD3 (LgBiT stable), and HEK293 HiBiT-BRD4 (LgBiT stable) were created using CRISPR/Cas9 to insert at HiBiT tag at the N-terminal genomic loci of BRD2, BRD3, or BRD4 in a cell line stably expressing LgBiT protein as described previously.[23]
For kinetic degradation experiments, HEK293 HiBiT-BRD2, 3, or 4 (LgBiT stable) cells and HEK293 HiBiT-BRD4 (LgBiT) CRBN KO and VHL KO cells were plated at 20,000 cells/well in DMEM +10% FBS in white 96-well tissue culture plates and allowed to adhere overnight. The next day, media was removed and 90 μL of prewarmed CO2-independent medium (Gibco) containing Endurazine (Promega) at a 1:100 dilution from stock was added. Plates were incubated at 37 °C for 3 h to allow luminescence to equilibrate. A threefold dilution series of each PROTAC at 10x the desired final concentration was prepared (with the amount of DMSO in each treatment condition kept constant). After luminescence equilibration, a preread luminescence measurement was taken (prior to compound addition) to allow for baseline normalization to account for possible plating differences. Cells were then treated with 10 μL of the prepared PROTAC dilution series (in triplicate or quadruplicate). Treated plates were placed in a GloMax Discover luminometer (Promega) prewarmed to 37 °C and luminescence measurements were obtained every 7 min for 24 h. Kinetic degradation plots were obtained by first normalizing time course luminescence readings in each well to the preread measurement, then to the average value of the DMSO only control at each time point. Data was analyzed using GraphPad Prism (version 8) and excel. Dmax values were identified as the lowest luminescence reading in each well. Rate constant values were calculated using a one phase exponential decay Y = (Y0-Plateau) e(K*^X) + Plateau using Prism (Y0 constrained to 1). Dmax 50 values were calculated by plotting Dmax as a function of concentration, then fitting plots using the following equation: [drawing 1] to determine IC50.
HiBiT-BRD4 (LgBiT stable) HEK293 cells (Promega) were used to generate both VHL KO HiBiT-BRD4 (LgBiT stable) and CRBN KO HiBiT-BRD4 (LgBiT stable) cell lines. For VHL, gRNAs targeting exon 1 ([…]) and exon 2 ([…]) and for CRBN, gRNAs targeting exon 3 ([…]) and exon 6 ([…]) were purchased from IDT DNA (Table 5). For each gRNA, tracrRNA/crRNA duplexes were formed by combining 10 μL of 100 μM Alt-R […] (IDT), 100 μM Alt-R crRNA (IDT) and heating at 95C for 5 min, then were allowed to cool to room temp for 20 min. RNPs were then formed by combining 75 pmol Cas9 (IDT) with 2.4 μL total of prepared tracrRNA/crRNA complex (1.2 μL for each gRNA targeting each exon). Cells were then trypsinized and resuspended at 10,000,000 cells/mL in 1 mL of Mirus Ingenio electroporation solution. Three μL of 100 μM electroporation enhancer (Mirus) was added, along with 3 μL of RNP solution. Cells were electroporated in 2 mm cuvettes using a BioRad system (190 V, 950 μF, infinite resistance) and were then plated in a T75 flask in full growth medium to allow for recovery. After recovery from electroporation, knockout pools were sorted for single cells in 96-well tissue culture treated plates. Clonal populations which expanded from single cells were then screened for loss of function of VHL by treating with MZ1, or loss of function of CRBN by treating with dBET6, using a HiBiT-BRD4 luminescent readout assay. Genomic DNA isolated from candidate clones was then PCR-amplified (Table of primers below), Gibson-assembled into a pF1A plasmid backbone, transformed into E. coli., and then Sanger sequenced to confirm presence of indels in the targeted exons. […] VHL exon 3 carried a 19 bp deletion on one allele, and a 1 bp insertion on the other allele, both occurring after the premature stop codon in exon 1.

RKO WT cells = experiment: cells; type: cell-based, human; conditions: Homo sapiens, 316 pM to 10 μM
Description: RKO WT, VHL KO, CRBN KO and CRBN/VHL dKO cells were cultured in Dulbecco’s modified Eagle’s medium supplemented with 10% FCS and 1% penicillin–streptomycin. RKO CRBN KO and VHL KO were generated previously.[45] RKO CRBN/VHL dKO cells were generated by transiently expressing pSpCas9(BB)-2A-GFP (PX458) (Addgene 48138) loaded with a short guide RNA (sgRNA) targeting VHL (Fwd: […], Rev: […]) in RKO CRBN KO cells. Clones were single cell seeded and checked for VHL and CRBN double deletion via Western blot or PCR on genomic DNA (gDNA).
Cells were seeded in 96-well plates at a cell density of 3750 cells per well and treated for 3 days with DMSO or drug at ten √10 serial diluted concentrations. […] Cell viability was assessed using the CellTiter-Glo assay (CellTiter-Glo Luminescent Cell Viability Assay, Promega G7573) according to manufacturer instructions. Luminescence signal was measured on a Multilabel Plate Reader Platform Victor X3 model 2030 (PerkinElmer). Survival curves and EC50 values were determined using GraphPad Prism v.10.0.3 by fitting a nonlinear regression to the log10-transformed drug concentration and the relative viability after normalization of each data point to the mean luminescence of the lowest drug concentration.

[1] = WT RKO, n = 3 (Table S4), read-out: EC50 RKO

Structure (SMILES)	EC50 (BRD4) [µM]	λmax BRD4 (degradation rate) (BRD4) [h⁻¹]	EC50 (RKO WT cells; [1]) [µM]	treatment concentrations with observable hook-effect (BRD4; HiBiT-BRD4 HEK293 cells) [nM]	BRD4 degradation rate (in words) (BRD4; HiBiT-BRD4 HEK293 cells (Figure S4))	Dmax (BRD4; HiBiT-BRD4 HEK293 cells, read-out: final Dmax less than for 26 and 27) [%]	EC50 (RKO WT cells; 72 h, 3 days, n = 3 (Figures 5 and 8C, Table S5), read-out: EC50 RKO WT) [µM]	fold increase in degradation of BRD4 (Dmax 50) vs matched pair (BRD4; HiBiT-BRD4 HEK293 cells) [fold]
Cc1ncsc1-c1ccc(CNC(=O)[C@@H]2C[C@@H](O)CN2C(=O)[C@@H](NC(=O)COCC(C)(COCCOCCOCCOC(=O)C[C@@H]2N=C(c3ccc(Cl)cc3)c3c(sc(C)c3C)-n3c(C)nnc32)COCCOCCOCCN2CCN(c3cccc4c3C(=O)N(C3CCC(=O)NC3=O)C4=O)CC2)C(C)(C)C)cc1 (mixture of isomers) [AB3029 (31), (17S)-11-((2-(2-(2-(4-(2-(2,6-dioxopiperidin-3-yl)-1,3-dioxoisoindolin-4-yl)piperazin-1-yl)ethoxy)ethoxy)ethoxy)methyl)-17-((2S,4R)-4-hydroxy-2-((4-(4-methylthiazol-5-yl)benzyl)carbamoyl)pyrrolidine-1-carbonyl)-11,18,18-trimethyl-15-oxo-3,6,9,13-tetraoxa-16-azanonadecyl 2-((S)-4-(4-chlorophenyl)-2,3,9-trimethyl-6H-thieno[3,2-f][1,2,4]triazolo[4,3-a][1,4]diazepin-6-yl)acetate]	0.015	1.99	1.02					
Cc1ncsc1-c1ccc(CNC(=O)[C@@H]2C[C@@H](O)CN2C(=O)[C@@H](NC(=O)COCC(COCCOCCOCCNc2cc3c(cc2F)C(=O)N(C2CCC(=O)NC2=O)C3=O)(COCCOCCOCCOC(=O)C[C@@H]2N=C(c3ccc(Cl)cc3)c3c(sc(C)c3C)-n3c(C)nnc32)COCCOCCOCCOC(=O)C[C@@H]2N=C(c3ccc(Cl)cc3)c3c(sc(C)c3C)-n3c(C)nnc32)C(C)(C)C)cc1 (mixture of isomers) [AB3124 (86)]	0.0011			≥ 333	remarkably slow compared to the rapid degradation mediated by 27	> 10	0.033	
Cc1ncsc1-c1ccc(CNC(=O)[C@@H]2C[C@@H](O)CN2C(=O)[C@@H](NC(=O)COCC(C)(COCCOCCNc2cc3c(cc2F)C(=O)N(C2CCC(=O)NC2=O)C3=O)COCCOCCOC(=O)C[C@@H]2N=C(c3ccc(Cl)cc3)c3c(sc(C)c3C)-n3c(C)nnc32)C(C)(C)C)cc1 (mixture of isomers) [AB3125 (30), (14S)-8-((2-(2-((2-(2,6-dioxopiperidin-3-yl)-6-fluoro-1,3-dioxoisoindolin-5-yl)amino)ethoxy)ethoxy)methyl)-14-((2S,4R)-4-hydroxy-2-((4-(4-methylthiazol-5-yl)benzyl)carbamoyl)pyrrolidine-1-carbonyl)-8,15,15-trimethyl-12-oxo-3,6,10-trioxa-13-azahexadecyl 2-((S)-4-(4-chlorophenyl)-2,3,9-trimethyl-6H-thieno[3,2-f][1,2,4]triazolo[4,3-a][1,4]diazepin-6-yl)acetate]	0.0082	1.76	0.369					6.7
Cc1ncsc1-c1ccc(CNC(=O)[C@@H]2C[C@@H](O)CN2C(=O)[C@@H](NC(=O)COCC(C)(COCCOCCNc2cc3c(cc2F)C(=O)N(C2CCC(=O)NC2=O)C3=O)COCCOCCOCCOC(=O)C[C@@H]2N=C(c3ccc(Cl)cc3)c3c(sc(C)c3C)-n3c(C)nnc32)C(C)(C)C)cc1 (mixture of isomers) [AB3126 (29), (17S)-11-((2-(2-((2-(2,6-dioxopiperidin-3-yl)-6-fluoro-1,3-dioxoisoindolin-5-yl)amino)ethoxy)ethoxy)methyl)-17-((2S,4R)-4-hydroxy-2-((4-(4-methylthiazol-5-yl)benzyl)carbamoyl)pyrrolidine-1-carbonyl)-11,18,18-trimethyl-15-oxo-3,6,9,13-tetraoxa-16-azanonadecyl 2-((S)-4-(4-chlorophenyl)-2,3,9-trimethyl-6H-thieno[3,2-f][1,2,4]triazolo[4,3-a][1,4]diazepin-6-yl)acetate]	0.004	1.69	0.195					
Cc1ncsc1-c1ccc(CNC(=O)[C@@H]2C[C@@H](O)CN2C(=O)[C@@H](NC(=O)COCC(C)(COCCOCCOCCNc2cccc3c2C(=O)N(C2CCC(=O)NC2=O)C3=O)COCCOCCOCCOC(=O)C[C@@H]2N=C(c3ccc(Cl)cc3)c3c(sc(C)c3C)-n3c(C)nnc32)C(C)(C)C)cc1 (mixture of isomers) [AB3062 (23), (17S)-11-((2-(2-(2-((2-(2,6-dioxopiperidin-3-yl)-1,3-dioxoisoindolin-4-yl)amino)ethoxy)ethoxy)ethoxy)methyl)-17-((2S,4R)-4-hydroxy-2-((4-(4-methylthiazol-5-yl)benzyl)carbamoyl)pyrrolidine-1-carbonyl)-11,18,18-trimethyl-15-oxo-3,6,9,13-tetraoxa-16-azanonadecyl 2-((S)-4-(4-chlorophenyl)-2,3,9-trimethyl-6H-thieno[3,2-f][1,2,4]triazolo[4,3-a][1,4]diazepin-6-yl)acetate]	0.011	1.40	0.42					3.4
Cc1ncsc1-c1ccc(CNC(=O)[C@@H]2C[C@@H](O)CN2C(=O)[C@@H](NC(=O)COCC(C)(COCCOCCOCCNc2cc3c(cc2F)C(=O)N(C2CCC(=O)NC2=O)C3=O)COCCOCCOC(=O)C[C@@H]2N=C(c3ccc(Cl)cc3)c3c(sc(C)c3C)-n3c(C)nnc32)C(C)(C)C)cc1 (mixture of isomers) [AB3065 (28), (14S)-8-((2-(2-(2-((2-(2,6-dioxopiperidin-3-yl)-6-fluoro-1,3-dioxoisoindolin-5-yl)amino)ethoxy)ethoxy)ethoxy)methyl)-14-((2S,4R)-4-hydroxy-2-((4-(4-methylthiazol-5-yl)benzyl)carbamoyl)pyrrolidine-1-carbonyl)-8,15,15-trimethyl-12-oxo-3,6,10-trioxa-13-azahexadecyl 2-((S)-4-(4-chlorophenyl)-2,3,9-trimethyl-6H-thieno[3,2-f][1,2,4]triazolo[4,3-a][1,4]diazepin-6-yl)acetate]	0.0029	1.51	0.214					
